Experiment: recombinant UMI read abundance after kanamycin selection (control-corrected) (log10(CPM+1)); higher = more efficient recombination; extreme values may be limits of the assay; sequences stand for … in AGTGCAGAGAAAATCGGCCAGTTTTCTCTGCCTGCAGTCCGCATGCCGTGGGACCCCTTGGGTTCTAACCTGTTGCCTAGATTTATGCAGCGGACTGCCTTTCTCCCAAAGTGATAAACCGG…AGGTTGGTTTCACT; site = the 11-nt donor
Method in brief: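 Values, expressed as log10(CPM+1), derive from recombinant UMI counts converted to CPM, averaged across replicates and scaled by control-derived factors. Plating was with IPTG (0.07 mM) plus kanamycin or unselected, two replicates each. The screen pooled donor and donor-binding-loop pairs for the IS621 bridge recombinase in Escherichia coli.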
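Further: IS621 bridge recombinase in Escherichia coli cells against a fixed T5 target plasmid.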

Sequence | recombinant UMI read abundance (log10)
TCAGAGCCATGGACCGGTTTTCCCGGTAATCCGTATTTGCG (site TCAGAGCCTCG) | 0.295
TCAGAGCCATGGACCGGTTTTCCCGGTAATCCGTATTTGCG (site TCAGAGGCTCG) | 0.00861
TCAGAGCCATGGACCGGTTTTCCCGGTAATCCGTATTTGCG (site TCAGAGTCTCG) | 2.36
TCAGAGTCATGGACCGGTTTTCCCGGTAATCCGTATTTGCG (site TCAGAGACTCG) | 0.877
TCAGAGTCATGGACCGGTTTTCCCGGTAATCCGTATTTGCG (site TCAGAGCCTCG) | 0.625
TCAGAGTCATGGACCGGTTTTCCCGGTAATCCGTATTTGCG (site TCAGAGGCTCG) | 0.0319
TCAGAGTCATGGACCGGTTTTCCCGGTAATCCGTATTTGCG (site TCAGAGTCTCG) | 3
TCAGTACCATGGACCGGTTTTCCCGGTAATCCGTATTTGTG (site TCAGTACCTCA) | 0.023
TCAGTAGCATGGACCGGTTTTCCCGGTAATCCGTATTTGAT (site TCAGTAGCTAT) | 2.12
TCAGTATCATGGACCGGTTTTCCCGGTAATCCGTATTTGCG (site ACAGTATCTTG) | 0
TCAGTATCATGGACCGGTTTTCCCGGTAATCCGTATTTGCG (site TCAGTATCTCG) | 1.85
TCAGTCCCATGGACCGGTTTTCCCGGTAATCCGTATTTGGT (site TCAGTCCCTAC) | 0
TCATAGACATGGACCGGTTTTCCCGGTAATCCGTATTTGCG (site TCAAAGACTCG) | 0.629
TCATAGACATGGACCGGTTTTCCCGGTAATCCGTATTTGCG (site TCACAGACTCG) | 0.285
TCATAGACATGGACCGGTTTTCCCGGTAATCCGTATTTGCG (site TCAGAGACTCG) | 0.00296
TCATAGACATGGACCGGTTTTCCCGGTAATCCGTATTTGCG (site TCATAGACTCG) | 1.87
TCATAGACATGGACCGGTTTTCCCGGTAATCCGTATTTGGA (site TCATAGACTTC) | 0.712
TCATCAGCATGGACCGGTTTTCCCGGTAATCCGTATTTGAT (site TCATCAGCTAT) | 0.316
TCATCTCCATGGACCGGTTTTCCCGGTAATCCGTATTTGTC (site TCATCTCCTGA) | 0
TCATGATCATGGACCGGTTTTCCCGGTAATCCGTATTTGCC (site TCATGATCTGG) | 0.807
TCATGATCATGGACCGGTTTTCCCGGTAATCCGTATTTGGA (site TCATGATCTTC) | 1.32
TCCAACCCATGGACCGGTTTTCCCGGTAATCCGTATTTGCC (site TCCAACCCTGG) | 0
TCCAACGCATGGACCGGTTTTCCCGGTAATCCGTATTTGAT (site TCCAACGCTAT) | 0
TCCACACCATGGACCGGTTTTCCCGGTAATCCGTATTTGAG (site TCCACACCTCT) | 0.0221
TCCACAGCATGGACCGGTTTTCCCGGTAATCCGTATTTGCG (site TCCACAGCTCG) | 0

Sequence | recombinant UMI read abundance (log10)
TCCACAGCATGGACCGGTTTTCCCGGTAATCCGTATTTGCG (site TCCACCGCTCG) | 0.00793
TCCACAGCATGGACCGGTTTTCCCGGTAATCCGTATTTGCG (site TCCACGGCTCG) | 0.0203
TCCACAGCATGGACCGGTTTTCCCGGTAATCCGTATTTGCG (site TCCACTGCTCG) | 0.0252
TCCACCCCATGGACCGGTTTTCCCGGTAATCCGTATTTGCG (site TCCACCACTCG) | 0.00655
TCCACCCCATGGACCGGTTTTCCCGGTAATCCGTATTTGCG (site TCCACCCCTCG) | 0.0148
TCCACCCCATGGACCGGTTTTCCCGGTAATCCGTATTTGCG (site TCCACCGCTCG) | 0.0184
TCCACCCCATGGACCGGTTTTCCCGGTAATCCGTATTTGCG (site TCCACCTCTCG) | 0.00748
TCCACCGCATGGACCGGTTTTCCCGGTAATCCGTATTTGAG (site TCCACCGCTCA) | 0.0207
TCCACCGCATGGACCGGTTTTCCCGGTAATCCGTATTTGAG (site TCCACCGCTCC) | 0.0231
TCCACCGCATGGACCGGTTTTCCCGGTAATCCGTATTTGAG (site TCCACCGCTCG) | 0.0211
TCCACCGCATGGACCGGTTTTCCCGGTAATCCGTATTTGAG (site TCCACCGCTCT) | 0.0235
TCCACCGCATGGACCGGTTTTCCCGGTAATCCGTATTTGCA (site TCCACCGCTAG) | 0.00852
TCCACCGCATGGACCGGTTTTCCCGGTAATCCGTATTTGCA (site TCCACCGCTCG) | 0
TCCACCGCATGGACCGGTTTTCCCGGTAATCCGTATTTGCA (site TCCACCGCTGG) | 0
TCCACCGCATGGACCGGTTTTCCCGGTAATCCGTATTTGCA (site TCCACCGCTTG) | 0.167
TCCACCGCATGGACCGGTTTTCCCGGTAATCCGTATTTGTG (site TCCACCGCTCA) | 0.0465
TCCACCGCATGGACCGGTTTTCCCGGTAATCCGTATTTGTG (site TCCACCGCTCC) | 0.00628
TCCACCGCATGGACCGGTTTTCCCGGTAATCCGTATTTGTG (site TCCACCGCTCG) | 0.00762
TCCACCGCATGGACCGGTTTTCCCGGTAATCCGTATTTGTG (site TCCACCGCTCT) | 0.0682
TCCACTGCATGGACCGGTTTTCCCGGTAATCCGTATTTGCG (site TCCACAGCTCG) | 0
TCCACTGCATGGACCGGTTTTCCCGGTAATCCGTATTTGCG (site TCCACCGCTCG) | 0
TCCACTGCATGGACCGGTTTTCCCGGTAATCCGTATTTGCG (site TCCACGGCTCG) | 0.00658
TCCACTGCATGGACCGGTTTTCCCGGTAATCCGTATTTGCG (site TCCACTGCTCG) | 0.0111
TCCAGCACATGGACCGGTTTTCCCGGTAATCCGTATTTGTG (site TCCAGCACTCA) | 0.0248
TCCAGCGCATGGACCGGTTTTCCCGGTAATCCGTATTTGCG (site TCCAACGCTCG) | 0

Sequence | recombinant UMI read abundance (log10)
TCCAGCGCATGGACCGGTTTTCCCGGTAATCCGTATTTGCG (site TCCACCGCTCG) | 0.0119
TCCAGCGCATGGACCGGTTTTCCCGGTAATCCGTATTTGCG (site TCCAGCGCTCG) | 0.0428
TCCAGCGCATGGACCGGTTTTCCCGGTAATCCGTATTTGCG (site TCCATCGCTCG) | 0.00909
TCCAGTTCATGGACCGGTTTTCCCGGTAATCCGTATTTGCC (site TCCAATTCTGG) | 0
TCCAGTTCATGGACCGGTTTTCCCGGTAATCCGTATTTGCC (site TCCACTTCTGG) | 0
TCCAGTTCATGGACCGGTTTTCCCGGTAATCCGTATTTGCC (site TCCAGTTCTGG) | 0
TCCAGTTCATGGACCGGTTTTCCCGGTAATCCGTATTTGCC (site TCCATTTCTGG) | 0
TCCATAACATGGACCGGTTTTCCCGGTAATCCGTATTTGGG (site TCCATAACTCC) | 0.008
TCCATGCCATGGACCGGTTTTCCCGGTAATCCGTATTTGAT (site TCCATGCCTAT) | 0
TCCATTCCATGGACCGGTTTTCCCGGTAATCCGTATTTGAT (site TCCATTCCTAT) | 0
TCCCATACATGGACCGGTTTTCCCGGTAATCCGTATTTGCG (site TCCCATACTCG) | 0.00752
TCCCATTCATGGACCGGTTTTCCCGGTAATCCGTATTTGCC (site TCCAATTCTGG) | 0
TCCCATTCATGGACCGGTTTTCCCGGTAATCCGTATTTGCC (site TCCCATTCTGG) | 0
TCCCATTCATGGACCGGTTTTCCCGGTAATCCGTATTTGCC (site TCCGATTCTGG) | 0
TCCCATTCATGGACCGGTTTTCCCGGTAATCCGTATTTGCC (site TCCTATTCTGG) | 0
TCCCCAACATGGACCGGTTTTCCCGGTAATCCGTATTTGTT (site TCCCCAACTAA) | 0.0153
TCCCGCTCATGGACCGGTTTTCCCGGTAATCCGTATTTGCC (site TCCCGCTCTGG) | 0
TCCCTGACATGGACCGGTTTTCCCGGTAATCCGTATTTGGA (site TCCCTGACTTC) | 0.0122
TCCGATTCATGGACCGGTTTTCCCGGTAATCCGTATTTGAG (site TCCGATTCTCT) | 0.00583
TCCGATTCATGGACCGGTTTTCCCGGTAATCCGTATTTGCC (site TCCAATTCTGG) | 0
TCCGATTCATGGACCGGTTTTCCCGGTAATCCGTATTTGCC (site TCCCATTCTGG) | 0
TCCGATTCATGGACCGGTTTTCCCGGTAATCCGTATTTGCC (site TCCGATTCTGG) | 0
TCCGATTCATGGACCGGTTTTCCCGGTAATCCGTATTTGCC (site TCCTATTCTGG) | 0
TCCGCAGCATGGACCGGTTTTCCCGGTAATCCGTATTTGAA (site TCCGCAGCTTT) | 0.0198
TCCGCATCATGGACCGGTTTTCCCGGTAATCCGTATTTGGG (site TCCGCATCTCC) | 0.00533
